Laboratory results as given in US5104859A, “Continuous administration of adenosine to reduce pulmonary vascular resistance” (priority 1990, dated 1992).
Where “and” joins values, the source holds several entries; their conditions need not be identical. Equal entries are not always repeated.

How the values were obtained:
[1] = test system: systemic arterial blood pressure and central hemodynamics; experiment: Controlled hypotension during anesthesia: central hemodynamics (dipyridamole-pretreated cerebral aneurysm surgery patients); settings: for tachyphylaxis: constant infusion rate during hypotension
Experimental: One hour before the operation the patients were premedicated orally with diazepam (10-20 mg.) Atropine (0.5 mg) and droperidol (0.1 mg. per kg.) were given intravenously before induction of anesthesia. Induction was started with thiopental (5 mg. per kg) followed by phenoperidine (1-2 mg), a synthetic opiate with pharmacodymanics resembling fentanyl but with a longer duration of action and 1/10 of its analgesic potency.
Pancuronium bromide (0.1 mg per kg) was given to facilitate endotracheal intubation. Anesthesia was maintained by supplementary doses of phenoperidine and droperidol, as required. […] Phenoperidine was supplemented regularly to prevent the blood pressure from exceeding the preanesthetic level (approx. 1 mg/30-60 min). Controlled hyperventilation was employed with a humidified gas mixture of 60% N2 O in oxygen to maintain PaCO2 values at approximately 30 mmHg (±1.5/SEM). Mannitol (1-1.5 g. per kg) was given routinely at the start of the operation (e.g., 1-2 hours prior to the controlled hypotension). The patients were operated on in the horizontal supine position.
A 1.2-mm plastic cannula was introduced into the left radial artery to monitor systemic arterial blood pressure (MABP) and collect arterial blood. A balloon-tipped, flow-directed, quadruple lumen Swan-Ganz catheter (Model 93A-831-7.5 F, VIP) was inserted percutaneously via the left basilic vein, and its correct position in the pulmonary artery was determined by pressure tracings. The catheter was used for the monitoring of mean right atrial pressure (RAP), mean pulmonary artery pressure (PAP), and mean pulmonary capillary wedge pressure (PCWP) for the determination of cardiac output and collection of mixed venous blood and for the infusion of adenosine. Another plastic cannula was introduced percutaneously, in a retrograde direction, into the right jugular bulb for the collection of blood. The correct position was verified by x-ray.
The ECG was monitored with a standard chest (V5) lead. Heart rate was determined from the R-R interval. Blood pressures were measured by transducers placed at the midthoracic level. Cardiac output (QT) was determined in triplicate according to the thermodilution technique with a cardiac output computer (Edwards Lab, model 9510). Isotonic glucose, 10 ml at 1° C., was used as a thermal indicator. The ECG, heart rate, blood pressures, and thermodilution curves were recorded on a Grass® polygraph.
Measurements and blood samplings were performed immediately before hypotension, as late as possible during hypotension (1-5 min before terminating the infusion) and approximately 30 min after the hypotensive period.
Dipyridamole (5 mg. per ml) was infused iv (0.3-0.4 mg. per kg. over a period of 5-10 min) approximately 20 minutes prior to the induction of controlled hypotension. […] (See Pedersen, J. Chromatogr., 162: 98-103 (1979).
The infusion was started at a rate of 0.01 mg. per kg. per minute, which was doubled at 15 second intervals until the desired MABP level of 40-50 mmHg was reached. […] Serum creatinine was determined before and on two consecutive days after operation. The standard ECG was recorded the day before and the day after operation.
Systemic vascular resistance (SVR) was derived from the formula [formula] and pulmonary vascular resistance (PVR) from the formula [formula]
The statistical significance (control 1 vs. adenosine and control 1 vs. control 2) was determined by Student's t test for paired data. A P value of <0.05 was regarded as significant.

[2] = test system: systemic arterial blood pressure and central hemodynamics; experiment: Controlled hypotension in surgical patients without dipyridamole pretreatment; assay type: in vivo, human
Experimental: For this indication, adenosine typically is administered intravenously via the left basilic vein or via a central vein in an amount (or at a rate) sufficient to achieve the desired hypotensive effect.
The actual plasma levels of adenosine employed for controlled hypotension will vary, depending upon such factors as the particular patient, the age of the patient and the desired degree of hypotension. […] The hypotensive effect of adenosine was then studied upon this hypotensive dose of dipyridamole.
Subsequent to the tests described above, a 20 mM solution of adenosine in isotonic saline was administered to 50 surgical patients employing techniques similar to those described, except that pretreatment with dipyridamole was omitted.

[3] = Control 2, 30 min after hypotension

## Nc1ncnc2c1ncn2[C@@H]1O[C@H](CO)[C@@H](O)[C@H]1O [adenosine]
[1]
  PVR during adenosine: unchanged
  RAP, PAP and PCWP: not influenced
  decrease in MABP: 43±3%
  decrease in SVR: 61±3%
  increase in cardiac output: 44±9%
  increase in heart rate: 9±2 beats per minute
  tachyphylaxis: without evidence of tachyphylaxis
[1]; [3]
  Cardiac output: 5.17 ± 0.54 liters per min.
  Diastolic blood pressure: 71 ± 3 mmHg
  Mean arterial blood pressure: 91 ± 4 mmHg
  Pulmonary artery pressure: 14.7 ± 1.4 mmHg
  Pulmonary capillary wedge pressure: 9.9 ± 1.4 mmHg
  Pulmonary vascular resistance: 0.97 ± 0.15 mmHg per liter min.
  Right atrial pressure: 5.6 ± 0.8 mmHg
  Systolic blood pressure: 130 ± 7 mmHg
  heart rate: 58 ± 3 beats per min.
[1]; after discontinuation of infusion
  rebound hypertension: did not occur
[1]; listed as Adenosine
  tachyphylaxis: absence of tachyphylaxis
[1]; decreased from 16.7
  SVR during adenosine: 6.2 mmHg per liter a minute
[1]; during adenosine
  Cardiac output: 6.86 ± 0.71 liters per min.
  Diastolic blood pressure: 34 ± 2 mmHg
  Mean arterial blood pressure: 46 ± 2 mmHg and 46 mmHg
  Pulmonary artery pressure: 16.5 ± 0.9 mmHg
  Pulmonary capillary wedge pressure: 11.0 ± 1.0 mmHg
  Pulmonary vascular resistance: 0.82 ± 0.08 mmHg per liter min.
  Right atrial pressure: 7.2 ± 0.7 mmHg
  Systolic blood pressure: 78 ± 6 mmHg
  heart rate: 63 ± 3 beats per min.
[1]; increased from 4.9
  cardiac output during adenosine: 6.9 1 per minute
[1]; persistently higher after hypotension
  MABP increase after hypotension vs control period: approximately 10 mmHg
[1]; within
  time to decrease in MABP: 1 to 2 min
  time to restoration of MABP after discontinuation: 1 to 5 min
[2]; about 0.2 to about 0.35 mg/kg/min
  mean arterial blood pressure achieved: 40 to 50 mm Hg
[2]; as low as, cannula in left radial artery
  mean arterial blood pressure achieved without significant side effects: 40 millimeters of mercury
[2]; man 0.2 to 0.35 mg/kg/minute
  effective adenosine dose in man relative to dog: 30 to 50 times lower
